Assays:
Conditions in all cases: 72 h
MOLM-13 = system: MOLM-13
Summary of the method: (§1)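 Each of fifteen myeloid leukaemia cell lines was seeded in RPMI 1640 at a density titrated to its linear growth range. The cells were incubated for 72 h at 37 °C and 5% CO2 with compounds at five tenfold doses from 1 to 10,000 nM, in duplicate. After ATP luminescence was normalised to vehicle and to a positive control at 10 µM, four-parameter log-logistic curves were fitted. These curves gave the IC50.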

KG-1 = system: KG-1
Summary of the method: as §1

HL-60 = system: HL-60
Summary of the method: as §1

KCL-22 = system: KCL-22
Summary of the method: as §1

Mono-Mac-6 = system: Mono-Mac-6
Summary of the method: as §1

THP-1 = system: THP-1
Summary of the method: as §1

LAMA-84 = system: LAMA-84
Summary of the method: as §1

BV-173 = system: BV-173
Summary of the method: as §1

MV4-11 = system: MV4-11
Summary of the method: as §1

SHI-1 = system: SHI-1
Summary of the method: as §1

KU-812 = system: KU-812
Summary of the method: as §1

HEL = system: HEL
Summary of the method: as §1

K-562 = system: K-562
Summary of the method: as §1

ML-2 = system: ML-2
Summary of the method: as §1

Compound	IC50 (cell viability) (MOLM-13) [µM]	IC50 (cell viability) (KG-1) [µM]	IC50 (cell viability) (HL-60) [µM]	IC50 (cell viability) (KCL-22) [µM]	IC50 (cell viability) (Mono-Mac-6) [µM]	IC50 (cell viability) (THP-1) [µM]	IC50 (cell viability) (LAMA-84) [µM]	IC50 (cell viability) (BV-173) [µM]	IC50 (cell viability) (MV4-11) [µM]	IC50 (cell viability) (SHI-1) [µM]	IC50 (cell viability) (KU-812) [µM]	IC50 (cell viability) (HEL) [µM]	IC50 (cell viability) (K-562) [µM]	IC50 (cell viability) (ML-2) [µM]
N[C@@H](CCC(=O)N[C@@H](CS)C(=O)NCC(=O)O)C(=O)O [Glutathione]	> 10	> 10	> 10	> 10	> 10	> 10	> 10	> 10	> 10	> 10	> 10	> 10	> 10	> 10
OCCN(CCO)c1nc(N2CCCCC2)c2nc(N(CCO)CCO)nc(N3CCCCC3)c2n1 [Dipyridamole]	> 10	> 10	> 10	> 10	> 10	> 10	> 10	3.55	8.82	> 10	> 10	> 10	> 10	> 10
OC[C@H]1OC(O)C[C@@H](O)[C@@H]1O (stereo partly specified) [2-deoxyglucose]	> 10	> 10	> 10	> 10	> 10	> 10	> 10	> 10	> 10	> 10	> 10	> 10	> 10	> 10
CC(=O)N[C@@H](CS)C(=O)O [Acetylcysteine]	> 10	> 10	> 10	> 10	> 10	> 10	> 10	> 10	> 10	> 10	> 10	> 10	> 10	> 10
Cn1c2cc(S(C)=O)sc2c2cnn(Cc3cccc(N)c3)c(=O)c21 (stereo unspecified) [TEPP-46]	> 10	> 10	> 10	> 10	> 10	> 10	> 10	> 10	> 10	> 10	> 10	> 10	> 10	> 10
CCCC(CCC)C(=O)O [Valproic acid]	> 10	> 10	> 10	> 10	> 10	> 10	> 10	> 10	> 10	> 10	> 10	> 10	> 10	> 10
CN(C)C(=N)NC(=N)N [Metformin]	> 10	> 10	> 10	> 10	> 10	> 10	> 10	> 10	> 10	> 10	> 10	> 10	> 10	> 10
Cc1cc(O)c2c(c1)C(=O)c1cc(O)cc(O)c1C2=O [Emodin]	> 10	> 10	> 10	> 10	> 10	> 10	> 10	> 10	> 10	> 10	> 10	> 10	> 10	> 10
CC(C)(F)C[C@H](N[C@@H](c1ccc(-c2ccc(S(C)(=O)=O)cc2)cc1)C(F)(F)F)C(=O)NC1(C#N)CC1 [Odanacatib]	> 10	> 10	> 10	> 10	> 10	> 10	> 10	> 10	> 10	> 10	> 10	> 10	> 10	> 10
CN1CC(=O)N2[C@H](c3ccc4c(c3)OCO4)c3[nH]c4ccccc4c3C[C@@H]2C1=O [Tadalafil]	> 10	> 10	> 10	> 10	> 10	> 10	> 10	> 10	> 10	> 10	> 10	> 10	> 10	> 10
CC1Cc2ccccc2N1NC(=O)c1ccc(Cl)c(S(N)(=O)=O)c1 (stereo unspecified) [Indapamide]	> 10	> 10	> 10	> 10	> 10	> 10	> 10	> 10	> 10	> 10	> 10	> 10	> 10	> 10
CC(C)(CS(=O)(=O)[O-])NC(=O)CC[N+](C)(C)CCO	> 10	> 10	> 10	> 10	> 10	> 10	> 10	> 10	> 10	> 10	> 10	> 10	> 10	> 10
C#CCN[C@@H]1CCc2ccccc21 [Rasagiline]	> 10	> 10	> 10	> 10	> 10	> 10	> 10	> 10	> 10	> 10	> 10	> 10	> 10	> 10
Cc1nc(-c2ccc(OCC(C)C)c(C#N)c2)sc1C(=O)O [Febuxostat]	> 10	> 10	> 10	> 10	> 10	> 10	> 10	> 10	> 10	> 10	> 10	> 10	> 10	> 10
NC(CCC(=O)NC(CSCc1ccc(Br)cc1)C(=O)NCC(=O)OC1CCCC1)C(=O)OC1CCCC1 (stereo unspecified) [S-para-Bromobenzylglutathione cyclopentyl diester]	> 10	> 10	> 10	> 10	> 10	> 10	> 10	2.32	> 10	> 10	> 10	> 10	> 10	3.95
NCc1ccc(-c2cccnc2)s1 [(5-Pyrid-3-YLTHIEN-2-YL)METHYLAMINE]	> 10	> 10	> 10	> 10	> 10	> 10	> 10	> 10	> 10	> 10	> 10	> 10	> 10	> 10
C[C@H]1O[C@H](O[C@H]2[C@H](O)[C@@H](O)[C@@H](O[C@H]3[C@H](O)[C@@H](O)C(O)O[C@@H]3CO)O[C@@H]2CO)[C@H](O)[C@@H](O)[C@@H]1N[C@H]1C=C(CO)[C@@H](O)[C@H](O)[C@H]1O (mixture of isomers) [Acarbose]	> 10	> 10	> 10	> 10	> 10	> 10	> 10	> 10	> 10	> 10	> 10	> 10	> 10	> 10

Compound	IC50 (cell viability) (MOLM-13) [µM]	IC50 (cell viability) (KG-1) [µM]	IC50 (cell viability) (HL-60) [µM]	IC50 (cell viability) (KCL-22) [µM]	IC50 (cell viability) (Mono-Mac-6) [µM]	IC50 (cell viability) (THP-1) [µM]	IC50 (cell viability) (LAMA-84) [µM]	IC50 (cell viability) (BV-173) [µM]	IC50 (cell viability) (MV4-11) [µM]	IC50 (cell viability) (SHI-1) [µM]	IC50 (cell viability) (KU-812) [µM]	IC50 (cell viability) (HEL) [µM]	IC50 (cell viability) (K-562) [µM]	IC50 (cell viability) (ML-2) [µM]
O=C(Oc1ccc([N+](=O)[O-])cc1)N1CCC(C(O)(c2ccc3c(c2)OCO3)c2ccc3c(c2)OCO3)CC1 [JZL184]	> 10	> 10	> 10	> 10	> 10	> 10	> 10	> 10	> 10	> 10	> 10	> 10	> 10	> 10
N#Cc1ccc(C2CCCc3cncn32)cc1 (stereo unspecified) [Fadrozole]	> 10	> 10	> 10	> 10	> 10	> 10	> 10	> 10	> 10	> 10	> 10	> 10	> 10	> 10
Cl.OC[C@H]1NC[C@H](O)[C@@H](O)[C@H]1O [Migalastat]	> 10	> 10	> 10	> 10	> 10	> 10	> 10	> 10	> 10	> 10	> 10	> 10	> 10	> 10
O=C(CCl)N(CCCNC(=O)C(F)(F)F)c1ccc([N+](=O)[O-])cc1 [ML175]	0.276	0.341	2.13	2.07	0.896	2.77	2.54	0.32	0.309	3.41	2.23	0.297	2.95	0.288
Cl.NC1=CCCN1Cc1nc(O)nc(O)c1Cl [Tipiracil]	> 10	> 10	> 10	> 10	> 10	> 10	> 10	> 10	> 10	> 10	> 10	> 10	> 10	> 10
Cn1cc(C[C@@H](N)C(=O)O)c2ccccc21 [Indoximod]	> 10	> 10	> 10	> 10	> 10	> 10	> 10	> 10	> 10	> 10	> 10	> 10	> 10	> 10
Cc1[nH]n(-c2ccccc2)c(=O)c1C1(C(F)(F)F)C(=O)N(c2ccccc2)C2=C1C(=O)CC(C)(C)C2 (stereo unspecified)	> 10	> 10	> 10	> 10	> 10	> 10	> 10	> 10	> 10	> 10	> 10	> 10	> 10	> 10
O=C1N[C@@H]2[C@@H](O)[C@@H](O)[C@H](O)[C@@H](CO)N2C1=O [Kifunensine]	> 10	> 10	> 10	> 10	> 10	> 10	> 10	> 10	> 10	> 10	> 10	> 10	> 10	> 10
O=NN(CCCl)C(=O)NCCCl [Carmustine]	> 10	> 10	> 10	> 10	> 10	> 10	> 10	> 10	> 10	> 10	> 10	> 10	> 10	> 10
NCc1ccc(S(N)(=O)=O)cc1 [4-Homosulfanilamide]	> 10	> 10	> 10	> 10	> 10	> 10	> 10	> 10	> 10	> 10	> 10	> 10	> 10	> 10
c1ccc2nc(-c3nnc4sc(-c5cnccn5)nn34)ccc2c1	> 10	> 10	> 10	> 10	> 10	> 10	> 10	> 10	> 10	> 10	> 10	> 10	> 10	> 10
NS(=O)(=O)c1ccc(NC(=O)Cc2ccccc2)cc1 [4-(2-Phenylacetamido)Benzenesulfonamide]	> 10	> 10	> 10	> 10	> 10	> 10	> 10	> 10	> 10	> 10	> 10	> 10	> 10	> 10
O=c1oc2c(cc1O)oc(=O)c1cc(O)c(O)c(O)c12 [Galloflavin]	> 10	> 10	> 10	> 10	> 10	> 10	> 10	> 10	> 10	> 10	> 10	> 10	> 10	> 10
COc1ccc2c(c1)c(CC(=O)O)c(C)n2C(=O)c1ccc(Cl)cc1 [Indomethacine]	> 10	> 10	> 10	> 10	> 10	> 10	> 10	> 10	> 10	> 10	> 10	> 10	> 10	> 10
CCCCC/C=C\C/C=C\C/C=C\C/C=C\CCCC(=O)C(F)(F)F [Arachidonyl trifluoromethyl ketone]	> 10	> 10	> 10	> 10	7.99	> 10	> 10	> 10	> 10	> 10	> 10	> 10	> 10	> 10
CNC(=C[N+](=O)[O-])NCCSCc1ccc(CN(C)C)o1 [Ranitidine]	> 10	> 10	> 10	> 10	> 10	> 10	> 10	> 10	> 10	> 10	> 10	> 10	> 10	> 10
CC(C)c1ccc2c(c1)c(SC(C)(C)C)c(CC(C)(C)C(=O)O)n2Cc1ccc(Cl)cc1 [MK-886]	> 10	> 10	> 10	4.26	> 10	> 10	> 10	> 10	> 10	> 10	> 10	> 10	> 10	> 10

From the supplement of paper PMC8671470
